In patent US11229608B2 (priority 2019, dated 2022):
“Also recorded” adds a separate entry of the source.

Test system: ornamental vinca (vincire) plants
Assay: Phytotoxicity assessment on vinca plants after foliar application
Assay type: in vivo
Design: key to Phytotoxicity rating: −: non-phytotoxic; +: minimal phytotoxic; ++: moderate phytotoxic; +++: heavy phytotoxic
Conditions: 72 hours; for Phytotoxicity rating: visual
Procedure: Ornamental vinca plants are susceptible to metal phytotoxicity such as Cu and used as industry standard. 3 plants were foliar sprayed with each treatments and controls at three different rates, 300 ppm, 600 ppm and 1,000 ppm. Test solutions were foliar applied using hand-operated pump mist sprayer till run off. Afterwards, plants were placed in plant growth chamber (Panasonic MLR-325H-PA) programmed to simulate summer conditions (maximum temperature set at 31° C.). Visual observations were conducted after 72 hours application to assess the overall plant health and phytotoxicity rating.
The assessment was done visually based on size and number of burns on plants after 72 hours of foliar application. Vinca (vincire) plant phytotoxicity rating on a scale of “−” non-phytotoxic, “+” minimal phytotoxic, “++” moderate phytotoxic, and (+++) heavy phytotoxic.

`O=[N+]([O-])[O-].O=[N+]([O-])[O-].[Zn+2]` [Zinc nitrate] was tested, and the “phytotoxicity (in words)” value (300 μg/ml) was “non-phytotoxic”, the “phytotoxicity (in words)” value (600 μg/ml) was “moderately phytotoxic; also recorded: minimally phytotoxic” and the “phytotoxicity (in words)” value (1,000 μg/ml (ppm)) was “moderately phytotoxic”. For the same compound, the Phytotoxicity rating (metal concentration 300 μg/ml) was “−”, the Phytotoxicity rating (metal concentration 600 μg/ml) was “+” and the Phytotoxicity rating (metal concentration 1000 μg/ml) was “++”.

With `O=[N+]([O-])[O-].O=[N+]([O-])[O-].[Cu+2]` [Copper nitrate] the “phytotoxicity (in words)” value (1,000 μg/ml (ppm)) was “severely phytotoxic” and the Phytotoxicity rating (metal concentration 1000 μg/ml) was “+++”.
